Results from paper PMC10882719 (Frontiers in Neuroscience, 2024).
Read-outs that look alike come from different tables or passages of the source.

Experiments:
Type in all cases: cell-based
[1] = target: T1, 168 GPCRs (Homo sapiens, UniProt P47901); details: AVPR1B
T1 construct: host or cells: PathHunter cell lines
T1 sequence (P47901 1-424): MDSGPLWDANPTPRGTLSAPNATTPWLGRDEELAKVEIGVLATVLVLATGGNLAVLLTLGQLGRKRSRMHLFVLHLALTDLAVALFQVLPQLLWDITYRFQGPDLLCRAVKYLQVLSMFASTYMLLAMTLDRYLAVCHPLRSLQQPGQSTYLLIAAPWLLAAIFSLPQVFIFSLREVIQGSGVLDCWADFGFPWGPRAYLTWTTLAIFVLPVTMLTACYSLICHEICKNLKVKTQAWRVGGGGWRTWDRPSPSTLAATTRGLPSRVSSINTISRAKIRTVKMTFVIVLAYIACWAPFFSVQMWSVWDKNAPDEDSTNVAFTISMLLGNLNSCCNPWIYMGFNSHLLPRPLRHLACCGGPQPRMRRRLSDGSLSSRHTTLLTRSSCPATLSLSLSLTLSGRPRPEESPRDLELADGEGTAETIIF

[2] = target: T2, 168 GPCRs (Homo sapiens, UniProt P43088); details: PTGFR
T2 construct: host or cells: PathHunter cell lines

[3] = target: T3, 168 GPCRs (Homo sapiens, UniProt O43603)
T3 construct: host or cells: PathHunter cell lines
T3 sequence (O43603 1-387): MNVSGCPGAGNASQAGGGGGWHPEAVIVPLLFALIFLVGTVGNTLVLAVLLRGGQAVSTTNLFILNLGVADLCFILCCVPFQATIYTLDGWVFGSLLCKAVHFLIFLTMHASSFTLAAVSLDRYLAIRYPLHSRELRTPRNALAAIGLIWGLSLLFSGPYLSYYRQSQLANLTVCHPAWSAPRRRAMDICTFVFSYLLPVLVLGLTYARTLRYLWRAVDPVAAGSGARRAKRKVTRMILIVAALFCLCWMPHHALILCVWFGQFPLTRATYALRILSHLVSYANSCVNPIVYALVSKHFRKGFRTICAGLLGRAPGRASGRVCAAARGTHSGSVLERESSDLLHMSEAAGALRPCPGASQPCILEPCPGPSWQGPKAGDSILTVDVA

[4] = target: T4, 168 GPCRs (Homo sapiens, UniProt P49238)
T4 construct: host or cells: PathHunter cell lines
T4 sequence (P49238 1-355): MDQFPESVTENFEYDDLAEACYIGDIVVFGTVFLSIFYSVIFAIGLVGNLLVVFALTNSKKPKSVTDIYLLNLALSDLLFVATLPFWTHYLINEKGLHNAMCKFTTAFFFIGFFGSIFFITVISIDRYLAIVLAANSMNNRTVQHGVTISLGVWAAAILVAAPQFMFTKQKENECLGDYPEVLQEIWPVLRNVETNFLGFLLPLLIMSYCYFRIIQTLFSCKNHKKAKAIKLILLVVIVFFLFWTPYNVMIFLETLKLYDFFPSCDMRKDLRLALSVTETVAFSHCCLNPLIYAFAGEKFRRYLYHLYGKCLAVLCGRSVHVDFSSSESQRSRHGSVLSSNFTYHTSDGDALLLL

[5] = target: T5, 168 GPCRs (Homo sapiens, UniProt Q96LB2)
T5 construct: host or cells: PathHunter cell lines

[6] = target: T6, 168 GPCRs (Homo sapiens, UniProt P41231); details: P2RY2
T6 construct: host or cells: PathHunter cell lines

[7] = target: T7, 168 GPCRs (Homo sapiens, UniProt P21730)
T7 construct: host or cells: PathHunter cell lines
T7 sequence (P21730 1-350): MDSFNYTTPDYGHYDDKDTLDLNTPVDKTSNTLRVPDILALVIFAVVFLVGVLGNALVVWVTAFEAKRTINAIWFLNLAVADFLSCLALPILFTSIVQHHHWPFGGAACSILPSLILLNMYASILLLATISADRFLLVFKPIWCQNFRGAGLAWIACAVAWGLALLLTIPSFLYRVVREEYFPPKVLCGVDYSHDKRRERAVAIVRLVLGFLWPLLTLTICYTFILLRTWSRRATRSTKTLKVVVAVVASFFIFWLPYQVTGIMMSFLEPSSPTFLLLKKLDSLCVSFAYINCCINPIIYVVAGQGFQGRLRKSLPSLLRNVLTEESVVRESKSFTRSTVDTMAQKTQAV

[8] = target: T8, 168 GPCRs (Homo sapiens, UniProt P51681)
T8 construct: host or cells: PathHunter cell lines

[9] = target: T9, 168 GPCRs (Homo sapiens, UniProt P47898); details: HTR5A
T9 construct: host or cells: PathHunter cell lines
T9 sequence (P47898 whole entry): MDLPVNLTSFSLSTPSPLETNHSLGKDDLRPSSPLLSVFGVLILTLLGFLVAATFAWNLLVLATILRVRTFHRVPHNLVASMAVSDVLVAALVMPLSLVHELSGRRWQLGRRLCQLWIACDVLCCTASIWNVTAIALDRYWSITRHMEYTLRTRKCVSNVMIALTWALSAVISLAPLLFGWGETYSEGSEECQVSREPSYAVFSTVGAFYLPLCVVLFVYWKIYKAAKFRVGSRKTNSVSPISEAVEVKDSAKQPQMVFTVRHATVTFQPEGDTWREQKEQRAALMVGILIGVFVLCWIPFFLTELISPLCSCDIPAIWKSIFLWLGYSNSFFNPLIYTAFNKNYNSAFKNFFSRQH

T6 sequence (P41231 whole entry): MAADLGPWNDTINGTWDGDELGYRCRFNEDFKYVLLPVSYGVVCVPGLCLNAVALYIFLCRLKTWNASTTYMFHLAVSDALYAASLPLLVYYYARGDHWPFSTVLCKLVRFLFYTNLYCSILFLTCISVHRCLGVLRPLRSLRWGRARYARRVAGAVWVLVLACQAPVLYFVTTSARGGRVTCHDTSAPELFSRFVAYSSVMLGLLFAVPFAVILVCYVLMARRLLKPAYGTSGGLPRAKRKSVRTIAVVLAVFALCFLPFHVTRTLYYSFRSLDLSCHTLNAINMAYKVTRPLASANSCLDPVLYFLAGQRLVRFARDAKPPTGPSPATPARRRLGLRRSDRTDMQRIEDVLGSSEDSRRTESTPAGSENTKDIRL
T5 sequence (Q96LB2 whole entry): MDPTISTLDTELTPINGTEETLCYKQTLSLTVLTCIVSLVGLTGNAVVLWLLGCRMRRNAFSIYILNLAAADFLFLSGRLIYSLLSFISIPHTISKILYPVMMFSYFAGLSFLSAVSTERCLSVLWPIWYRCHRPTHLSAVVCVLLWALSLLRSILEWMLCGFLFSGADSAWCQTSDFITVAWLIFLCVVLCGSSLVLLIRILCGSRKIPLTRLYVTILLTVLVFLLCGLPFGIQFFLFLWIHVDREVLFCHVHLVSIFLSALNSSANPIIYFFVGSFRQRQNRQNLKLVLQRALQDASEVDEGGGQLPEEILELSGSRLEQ
T8 sequence (P51681 whole entry): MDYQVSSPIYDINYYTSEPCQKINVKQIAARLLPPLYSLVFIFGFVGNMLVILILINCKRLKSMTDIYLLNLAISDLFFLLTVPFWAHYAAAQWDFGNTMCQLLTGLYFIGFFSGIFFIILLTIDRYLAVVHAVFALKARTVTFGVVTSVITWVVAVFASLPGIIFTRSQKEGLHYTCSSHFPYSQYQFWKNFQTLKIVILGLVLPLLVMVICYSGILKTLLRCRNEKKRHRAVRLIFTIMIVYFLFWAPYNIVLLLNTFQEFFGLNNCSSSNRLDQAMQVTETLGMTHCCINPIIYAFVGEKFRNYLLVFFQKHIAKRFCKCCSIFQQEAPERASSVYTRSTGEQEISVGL
T2 sequence (P43088 whole entry): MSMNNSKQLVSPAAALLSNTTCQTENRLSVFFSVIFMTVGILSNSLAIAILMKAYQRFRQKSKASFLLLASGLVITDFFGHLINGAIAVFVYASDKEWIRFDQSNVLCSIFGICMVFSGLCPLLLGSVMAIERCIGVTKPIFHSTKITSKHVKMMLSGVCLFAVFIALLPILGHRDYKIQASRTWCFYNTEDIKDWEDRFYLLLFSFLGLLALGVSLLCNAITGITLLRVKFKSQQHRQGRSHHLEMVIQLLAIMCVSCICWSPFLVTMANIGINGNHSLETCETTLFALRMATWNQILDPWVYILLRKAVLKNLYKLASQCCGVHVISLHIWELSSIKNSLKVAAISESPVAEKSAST

In the case of CNC(C)C(=O)c1ccc2c(c1)OCO2 (centres unmarked) [methylone], the “% Agonist Activity” value ([1]; 1 uM) is reported as -1.2%, the “% Antagonist Activity” value ([1]; 1 uM) is reported as 9.8% and the “% Agonist Activity” value ([1]; 10 uM) is reported as -1.1%. The “% Antagonist Activity” value ([1]; 10 uM) was 3.5%, the “% Agonist Activity” value ([2]; Conc 1 uM) was 0.3% and the “% Antagonist Activity” value ([2]; Conc 1 uM) was 0.9%. For the same compound, the “% Agonist Activity” value ([2]; Conc 10 uM) was -0.2%, the “% Antagonist Activity” value ([2]; Conc 10 uM) was 0% and the “% Agonist Activity” value ([3]; GALR2, 1 uM) was 3.4%. For the same compound, the “% Antagonist Activity” value ([3]; GALR2, 1 uM) was 7%, the “% Agonist Activity” value ([3]; GALR2, 10 uM) was 1.9% and the “% Antagonist Activity” value ([3]; GALR2, 10 uM) was 1.5%. For the same compound, the “% Agonist Activity” value ([4]; CX3CR1, 1 uM) was 0%, the “% Antagonist Activity” value ([4]; CX3CR1, 1 uM) was -0.2% and the “% Agonist Activity” value ([4]; CX3CR1, 10 uM) was -0.4%. The “% Antagonist Activity” value ([4]; CX3CR1, 10 uM) was -6.1%, the “% Agonist Activity” value ([5]; MRGPRX1, 1 uM) was -1.7% and the “% Antagonist Activity” value ([5]; MRGPRX1, 1 uM) was -6.5%. For the same compound, the “% Agonist Activity” value ([5]; MRGPRX1, 10 uM) was -1.5%, the “% Antagonist Activity” value ([5]; MRGPRX1, 10 uM) was -10.2% and the “% Agonist Activity” value ([6]; Conc 1 uM) was -2.1%. For the same compound, the “% Antagonist Activity” value ([6]; Conc 1 uM) was 5.4%, the “% Agonist Activity” value ([6]; Conc 10 uM) was -2.7% and the “% Antagonist Activity” value ([6]; Conc 10 uM) was 1.8%. For the same compound, the “% Agonist Activity” value ([7]; C5aR1, 1 uM) was -1%, the “% Antagonist Activity” value ([7]; C5aR1, 1 uM) was 8.9% and the “% Agonist Activity” value ([7]; C5aR1, 10 uM) was -1.3%. The “% Antagonist Activity” value ([7]; C5aR1, 10 uM) was 5%, the “% Agonist Activity” value ([8]; CCR5, 1 uM) was -0.1% and the “% Antagonist Activity” value ([8]; CCR5, 1 uM) was 1.7%. The “% Agonist Activity” value ([8]; CCR5, 10 uM) was 0.3%, the “% Antagonist Activity” value ([8]; CCR5, 10 uM) was -0.5% and the “% Antagonist Activity” value ([9]; 1 uM) was 9.8%. The “% Antagonist Activity” value ([9]; 10 uM) was 1.6%.
In the case of CNC(C)Cc1ccc2c(c1)OCO2 (centres unmarked) [MDMA, 3,4-Methylenedioxy methamphetamine, reference compound], the “% Agonist Activity” value ([1]; 1 uM) is reported as -1%, the “% Antagonist Activity” value ([1]; 1 uM) is reported as 8.1% and the “% Agonist Activity” value ([1]; 10 uM) is reported as -1.8%. For the same compound, the “% Antagonist Activity” value ([1]; 10 uM) was 0.8%, the “% Agonist Activity” value ([2]; Conc 1 uM) was -1.5% and the “% Antagonist Activity” value ([2]; Conc 1 uM) was -1.5%. For the same compound, the “% Agonist Activity” value ([2]; Conc 10 uM) was -0.4%, the “% Antagonist Activity” value ([2]; Conc 10 uM) was 7.8% and the “% Agonist Activity” value ([3]; GALR2, 1 uM) was -2.9%. For the same compound, the “% Antagonist Activity” value ([3]; GALR2, 1 uM) was -5.1%, the “% Agonist Activity” value ([3]; GALR2, 10 uM) was -3% and the “% Antagonist Activity” value ([3]; GALR2, 10 uM) was -7.3%. For the same compound, the “% Agonist Activity” value ([4]; CX3CR1, 1 uM) was -1.3%, the “% Antagonist Activity” value ([4]; CX3CR1, 1 uM) was 6.5% and the “% Agonist Activity” value ([4]; CX3CR1, 10 uM) was -1.4%. For the same compound, the “% Antagonist Activity” value ([4]; CX3CR1, 10 uM) was 3.7%, the “% Agonist Activity” value ([5]; MRGPRX1, 1 uM) was 0.2% and the “% Antagonist Activity” value ([5]; MRGPRX1, 1 uM) was 5.1%. The “% Agonist Activity” value ([5]; MRGPRX1, 10 uM) was -0.4%, the “% Antagonist Activity” value ([5]; MRGPRX1, 10 uM) was 7.6% and the “% Agonist Activity” value ([6]; Conc 1 uM) was 6.6%. For the same compound, the “% Antagonist Activity” value ([6]; Conc 1 uM) was 11.5%, the “% Agonist Activity” value ([6]; Conc 10 uM) was 7.8% and the “% Antagonist Activity” value ([6]; Conc 10 uM) was 9.6%. For the same compound, the “% Agonist Activity” value ([7]; C5aR1, 1 uM) was -1.1%, the “% Antagonist Activity” value ([7]; C5aR1, 1 uM) was -5.5% and the “% Agonist Activity” value ([7]; C5aR1, 10 uM) was -1.1%. For the same compound, the “% Antagonist Activity” value ([7]; C5aR1, 10 uM) was -4.3%, the “% Agonist Activity” value ([8]; CCR5, 1 uM) was 0.2% and the “% Antagonist Activity” value ([8]; CCR5, 1 uM) was 4.5%. The “% Agonist Activity” value ([8]; CCR5, 10 uM) was 0.1%, the “% Antagonist Activity” value ([8]; CCR5, 10 uM) was 9.8% and the “% Antagonist Activity” value ([9]; 1 uM) was -16.4%. The “% Antagonist Activity” value ([9]; 10 uM) was -6.4%.
